From patent US9321760B2 (Merck Patent GmbH, priority 2011, dated 2016)

Target: P70S6K (T412E mutant) (Homo sapiens (Human), UniProt P23443, T412E)
Experiment: P70S6K enzyme assay
Assay type: biochemical
Details: 3 nM P70S6K T412E mutant, 24 μM ATP, 1 μM FITC-AHA-AKRRRLSSLRA-OH substrate peptide, 90 min at 25° C.
Outline: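 P70S6K T412E mutant (3 nM) with 24 μM ATP and 1 μM FITC-labelled S6-derived peptide in Hepes pH 7.5, MgCl2, DTT, Brij buffer; 90 min at 25° C, stopped with EDTA. Phosphorylated product and substrate peptides separated by microfluidic mobility shift; IC50 values derived.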

Sequence of P70S6K (T412E mutant) (P23443 whole entry T412E): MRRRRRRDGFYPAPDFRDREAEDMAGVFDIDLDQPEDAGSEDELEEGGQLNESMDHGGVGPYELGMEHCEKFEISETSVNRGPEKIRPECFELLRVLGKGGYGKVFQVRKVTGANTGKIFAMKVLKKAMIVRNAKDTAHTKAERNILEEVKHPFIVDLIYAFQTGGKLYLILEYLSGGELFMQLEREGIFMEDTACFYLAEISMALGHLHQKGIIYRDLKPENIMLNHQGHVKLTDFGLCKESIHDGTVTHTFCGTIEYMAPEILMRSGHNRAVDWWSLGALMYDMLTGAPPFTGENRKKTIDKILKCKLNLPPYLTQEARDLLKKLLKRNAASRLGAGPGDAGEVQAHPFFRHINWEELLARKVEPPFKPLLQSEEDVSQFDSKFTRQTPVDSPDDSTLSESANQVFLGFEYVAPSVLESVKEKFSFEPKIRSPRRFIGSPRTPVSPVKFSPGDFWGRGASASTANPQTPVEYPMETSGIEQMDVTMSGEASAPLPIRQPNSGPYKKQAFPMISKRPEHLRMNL

SMILES | IC50 [nM]
Cn1cc(-c2c(N)ncnc2N2CCN(C(CN)c3ccc(C(F)(F)F)cc3)CC2)cn1 (centres unmarked) [Example 40, 6-{4-[2-Amino-1-(4-trifluoromethyl-phenyl)-ethyl]-piperazin-1-yl}-5-(1-methyl-1H-pyrazol-4-yl)-pyrimidin-4-ylamine] | 11
CS(=O)(=O)c1ccc(C(CN2CCC2)N2CCN(c3ncnc(N)c3-c3ccc(F)cc3)CC2)cc1 (centres unmarked) [Example 128, 6-{4-[2-Azetidin-1-yl-1-(4-methanesulfonyl-phenyl)-ethyl]-piperazin-1-yl}-5-(4-fluoro-phenyl)-pyrimidin-4-ylamine] | 280
Nc1cc(N2CCN(C(CN3CCCCC3)c3cccc(C(F)(F)F)c3)CC2)ncn1 (centres unmarked) [Example 71, 6-{4-[1-(3-trifluoromethyl-phenyl)-2-piperidin-1-yl-ethyl]-piperazin-1-yl}-pyrimidin-4-ylamine] | > 1000
Nc1ncnc(N2CCC(N)(CNC(=O)c3ccc(F)cc3F)C2)c1Br (centres unmarked) [Example 195, N-[3-Amino-1-(6-amino-5-bromo-pyrimidin-4-yl)-pyrrolidin-3-ylmethyl]-2,4-difluoro-benzamide] | 3.3
CN(C)C[C@H](c1ccc(C(F)(F)F)cc1)N1CCN(c2ncnc(N)c2-c2ccc(F)cc2)CC1 [Example 16, (S)-6-(4-(2-(dimethylamino)-1-(4-(trifluoromethyl)phenyl)ethyl)piperazin-1-yl)-5-(4-fluorophenyl)pyrimidin-4-amine] | 4.9
C[C@H](NC(=O)C1(N)CCN(c2ncnc(N)c2C#N)CC1)c1ccc(Cl)cc1 [Example 218, 4-Amino-1-(6-amino-5-cyano-pyrimidin-4-yl)-piperidine-4-carboxylic acid [(S)-1-(4-chloro-phenyl)-ethyl]-amide] | 200

Continued by falling IC50, values first:

IC50 [nM] | SMILES
20000 | C[C@H](NC(=O)C1(N)CCN(c2ncnc(N)c2C(N)=O)CC1)c1ccc(Cl)cc1 [Example 244, 4-Amino-6-{4-amino-4-[(S)-1-(4-chloro-phenyl)-ethylcarbamoyl]-piperidin-1-yl}-pyrimidine-5-carboxylic acid amide]
920 | COc1ccc([C@H](CN2CCC2)N2CCN(c3ncnc(N)c3-c3ccc(F)cc3)CC2)cc1F [Example 104, 6-{4-[(R)-2-Azetidin-1-yl-1-(3-fluoro-4-methoxy-phenyl)-ethyl]-piperazin-1-yl}-5-(4-fluoro-phenyl)-pyrimidin-4-ylamine]
620 | C[C@H](NC(=O)C1(N)CCN(c2ncnc(N)c2Cl)CC1)c1ccc(Cl)cc1 [Example 222, 4-Amino-1-(6-amino-5-chloro-pyrimidin-4-yl)-piperidine-4-carboxylic acid [(S)-1-(4-chloro-phenyl)-ethyl]-amide]
320 | N#Cc1ccc(C(CN2CCC2)N2CCN(c3ncnc(N)c3-c3ccc(F)cc3)CC2)cc1 (centres unmarked) [Example 106, 4-(1-{4-[6-Amino-5-(4-fluoro-phenyl)-pyrimidin-4-yl]-piperazin-1-yl}-2-azetidin-1-yl-ethyl)-benzonitrile]
200 | CCc1c(N)ncnc1N1CCN(C(CN)c2ccc(Cl)nc2)CC1 (centres unmarked) [Example 177, 6-{4-[2-Amino-1-(6-chloro-pyridin-3-yl)-ethyl]-piperazin-1-yl}-5-ethyl-pyrimidin-4-ylamine]
46 | Nc1ncnc(N2CCC(N)(CNC(=O)c3ccc(F)cc3F)CC2)c1-c1ccc(F)cc1 [Example 208, N-{4-Amino-1-[6-amino-5-(4-fluoro-phenyl)-pyrimidin-4-yl]-piperidin-4-ylmethyl}-2,4-difluoro-benzamide]
17 | Nc1ncnc(N2CCC(C(O)c3ccc(-c4ccc(F)cc4)cc3)CC2)c1-c1ccc(F)cc1 (centres unmarked) [Example 139]
9.1 | Nc1ncnc(N2CCC(N)(CNC(=O)c3ccc(F)cc3F)C2)c1-c1ccc(C(F)(F)F)cc1 (centres unmarked) [Example 202, N-{3-Amino-1-[6-amino-5-(4-trifluoromethyl-phenyl)-pyrimidin-4-yl]-pyrrolidin-3-ylmethyl}-2,4-difluoro-benzamide]
